{"source": "the supplement of paper PMC10307832", "experiment_in_all_cases": "relative viability (nuclei count vs DMSO), 5 days (fraction); higher = more cells survive", "key": {"[1]": {"tested_on": "BEN", "method_in_brief": "(§1)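 Lung cancer cell lines were seeded in 1536-well plates and dosed by pin tool the next day, with either a single drug or a fixed anchor-drug dose combined with five library-drug doses (not always all listed) spaced in √10 steps. Five days later, one step fixed the cells and stained their nuclei (final 0.05% Triton X-100, 1% formaldehyde, 1 ug/ml Hoechst), and nuclei were counted on 4× images. Relative viability is the nuclei count in treated wells divided by the count in vehicle wells, and each value is the median of duplicate plates.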"}, "[2]": {"tested_on": "COR-L23", "method_in_brief": "as §1"}, "[3]": {"tested_on": "HCC-366", "method_in_brief": "as §1"}, "[4]": {"tested_on": "LOU-NH91", "method_in_brief": "as §1"}, "[5]": {"tested_on": "LU99A", "method_in_brief": "as §1"}, "[6]": {"tested_on": "NCI-H1355", "method_in_brief": "as §1"}, "[7]": {"tested_on": "NCI-H1437", "method_in_brief": "as §1"}, "[8]": {"tested_on": "NCI-H1650", "method_in_brief": "as §1"}, "[9]": {"tested_on": "NCI-H1651", "method_in_brief": "as §1"}, "[10]": {"tested_on": "NCI-H1734", "method_in_brief": "as §1"}, "[11]": {"tested_on": "NCI-H1793", "method_in_brief": "as §1"}, "[12]": {"tested_on": "NCI-H1975", "method_in_brief": "as §1"}, "[13]": {"tested_on": "NCI-H2023", "method_in_brief": "as §1"}, "[14]": {"tested_on": "NCI-H2085", "method_in_brief": "as §1"}, "[15]": {"tested_on": "NCI-H2342", "method_in_brief": "as §1"}, "[16]": {"tested_on": "NCI-H358", "method_in_brief": "as §1"}, "[17]": {"tested_on": "NCI-H441", "method_in_brief": "as §1"}, "[18]": {"tested_on": "NCI-H460", "method_in_brief": "as §1"}, "[19]": {"tested_on": "NCI-H838", "method_in_brief": "as §1"}, "[20]": {"tested_on": "SK-LU-1", "method_in_brief": "as §1"}}}
{"compound": "Nc1ccn([C@@H]2O[C@H](CO)[C@@H](O)[C@@H]2O)c(=O)n1", "note": "[Cytarabine] + Nc1ncn([C@H]2C[C@H](O)[C@@H](CO)O2)c(=O)n1 [Decitabine] (partner 2 µM)", "values": [{"measurement": "relative viability", "setting": "[1]; first compound 0.005 µM", "result": 0.675}, {"measurement": "relative viability", "setting": "[1]; first compound 0.01581 µM", "result": 0.558}, {"measurement": "relative viability", "setting": "[1]; first compound 0.05 µM", "result": 0.43}, {"measurement": "relative viability", "setting": "[1]; first compound 0.1581 µM", "result": 0.345}, {"measurement": "relative viability", "setting": "[1]; first compound 0.5 µM", "result": 0.31}, {"measurement": "relative viability", "setting": "[2]; first compound 0.005 µM", "result": 0.43}, {"measurement": "relative viability", "setting": "[2]; first compound 0.01581 µM", "result": 0.377}, {"measurement": "relative viability", "setting": "[2]; first compound 0.05 µM", "result": 0.341}, {"measurement": "relative viability", "setting": "[2]; first compound 0.1581 µM", "result": 0.205}, {"measurement": "relative viability", "setting": "[2]; first compound 0.5 µM", "result": 0.156}, {"measurement": "relative viability", "setting": "[3]; first compound 0.005 µM", "result": 0.402}, {"measurement": "relative viability", "setting": "[3]; first compound 0.01581 µM", "result": 0.292}, {"measurement": "relative viability", "setting": "[3]; first compound 0.05 µM", "result": 0.231}, {"measurement": "relative viability", "setting": "[3]; first compound 0.1581 µM", "result": 0.0925}, {"measurement": "relative viability", "setting": "[3]; first compound 0.5 µM", "result": 0.0894}, {"measurement": "relative viability", "setting": "[4]; first compound 0.005 µM", "result": 0.751}, {"measurement": "relative viability", "setting": "[4]; first compound 0.01581 µM", "result": 0.742}, {"measurement": "relative viability", "setting": "[4]; first compound 0.05 µM", "result": 0.696}, {"measurement": "relative viability", "setting": "[4]; first compound 0.1581 µM", "result": 0.545}, {"measurement": "relative viability", "setting": "[4]; first compound 0.5 µM", "result": 0.491}, {"measurement": "relative viability", "setting": "[5]; first compound 0.005 µM", "result": 0.863}, {"measurement": "relative viability", "setting": "[5]; first compound 0.01581 µM", "result": 0.781}, {"measurement": "relative viability", "setting": "[5]; first compound 0.05 µM", "result": 0.93}, {"measurement": "relative viability", "setting": "[5]; first compound 0.1581 µM", "result": 0.925}, {"measurement": "relative viability", "setting": "[5]; first compound 0.5 µM", "result": 0.823}, {"measurement": "relative viability", "setting": "[6]; first compound 0.005 µM", "result": 0.349}, {"measurement": "relative viability", "setting": "[6]; first compound 0.01581 µM", "result": 0.332}, {"measurement": "relative viability", "setting": "[6]; first compound 0.05 µM", "result": 0.337}, {"measurement": "relative viability", "setting": "[6]; first compound 0.1581 µM", "result": 0.242}, {"measurement": "relative viability", "setting": "[6]; first compound 0.5 µM", "result": 0.255}, {"measurement": "relative viability", "setting": "[7]; first compound 0.005 µM", "result": 0.498}, {"measurement": "relative viability", "setting": "[7]; first compound 0.01581 µM", "result": 0.442}, {"measurement": "relative viability", "setting": "[7]; first compound 0.05 µM", "result": 0.48}, {"measurement": "relative viability", "setting": "[7]; first compound 0.1581 µM", "result": 0.338}, {"measurement": "relative viability", "setting": "[7]; first compound 0.5 µM", "result": 0.268}, {"measurement": "relative viability", "setting": "[8]; first compound 0.005 µM", "result": 0.294}, {"measurement": "relative viability", "setting": "[8]; first compound 0.01581 µM", "result": 0.286}, {"measurement": "relative viability", "setting": "[8]; first compound 0.05 µM", "result": 0.276}, {"measurement": "relative viability", "setting": "[8]; first compound 0.1581 µM", "result": 0.17}, {"measurement": "relative viability", "setting": "[8]; first compound 0.5 µM", "result": 0.172}, {"measurement": "relative viability", "setting": "[9]; first compound 0.005 µM", "result": 0.646}, {"measurement": "relative viability", "setting": "[9]; first compound 0.01581 µM", "result": 0.493}, {"measurement": "relative viability", "setting": "[9]; first compound 0.05 µM", "result": 0.167}, {"measurement": "relative viability", "setting": "[9]; first compound 0.1581 µM", "result": 0.281}, {"measurement": "relative viability", "setting": "[9]; first compound 0.5 µM", "result": 0.213}, {"measurement": "relative viability", "setting": "[10]; first compound 0.005 µM", "result": 0.439}, {"measurement": "relative viability", "setting": "[10]; first compound 0.01581 µM", "result": 0.27}, {"measurement": "relative viability", "setting": "[10]; first compound 0.05 µM", "result": 0.188}, {"measurement": "relative viability", "setting": "[10]; first compound 0.1581 µM", "result": 0.131}, {"measurement": "relative viability", "setting": "[10]; first compound 0.5 µM", "result": 0.138}, {"measurement": "relative viability", "setting": "[11]; first compound 0.005 µM", "result": 0.585}, {"measurement": "relative viability", "setting": "[11]; first compound 0.01581 µM", "result": 0.35}, {"measurement": "relative viability", "setting": "[11]; first compound 0.05 µM", "result": 0.336}, {"measurement": "relative viability", "setting": "[11]; first compound 0.1581 µM", "result": 0.212}, {"measurement": "relative viability", "setting": "[11]; first compound 0.5 µM", "result": 0.237}, {"measurement": "relative viability", "setting": "[12]; first compound 0.005 µM", "result": 0.336}, {"measurement": "relative viability", "setting": "[12]; first compound 0.01581 µM", "result": 0.353}, {"measurement": "relative viability", "setting": "[12]; first compound 0.05 µM", "result": 0.562}, {"measurement": "relative viability", "setting": "[12]; first compound 0.1581 µM", "result": 0.271}, {"measurement": "relative viability", "setting": "[12]; first compound 0.5 µM", "result": 0.257}, {"measurement": "relative viability", "setting": "[13]; first compound 0.005 µM", "result": 0.169}, {"measurement": "relative viability", "setting": "[13]; first compound 0.01581 µM", "result": 0.116}, {"measurement": "relative viability", "setting": "[13]; first compound 0.05 µM", "result": 0.114}, {"measurement": "relative viability", "setting": "[13]; first compound 0.1581 µM", "result": 0.0751}, {"measurement": "relative viability", "setting": "[13]; first compound 0.5 µM", "result": 0.0656}, {"measurement": "relative viability", "setting": "[14]; first compound 0.005 µM", "result": 0.491}, {"measurement": "relative viability", "setting": "[14]; first compound 0.01581 µM", "result": 0.512}, {"measurement": "relative viability", "setting": "[14]; first compound 0.05 µM", "result": 0.518}, {"measurement": "relative viability", "setting": "[14]; first compound 0.1581 µM", "result": 0.483}, {"measurement": "relative viability", "setting": "[14]; first compound 0.5 µM", "result": 0.559}, {"measurement": "relative viability", "setting": "[15]; first compound 0.005 µM", "result": 0.712}, {"measurement": "relative viability", "setting": "[15]; first compound 0.01581 µM", "result": 0.702}, {"measurement": "relative viability", "setting": "[15]; first compound 0.05 µM", "result": 0.7}, {"measurement": "relative viability", "setting": "[15]; first compound 0.1581 µM", "result": 0.482}, {"measurement": "relative viability", "setting": "[15]; first compound 0.5 µM", "result": 0.483}, {"measurement": "relative viability", "setting": "[16]; first compound 0.005 µM", "result": 0.229}, {"measurement": "relative viability", "setting": "[16]; first compound 0.01581 µM", "result": 0.205}, {"measurement": "relative viability", "setting": "[16]; first compound 0.05 µM", "result": 0.226}, {"measurement": "relative viability", "setting": "[16]; first compound 0.1581 µM", "result": 0.133}, {"measurement": "relative viability", "setting": "[16]; first compound 0.5 µM", "result": 0.107}, {"measurement": "relative viability", "setting": "[17]; first compound 0.005 µM", "result": 0.289}, {"measurement": "relative viability", "setting": "[17]; first compound 0.01581 µM", "result": 0.186}, {"measurement": "relative viability", "setting": "[17]; first compound 0.05 µM", "result": 0.268}, {"measurement": "relative viability", "setting": "[17]; first compound 0.1581 µM", "result": 0.182}, {"measurement": "relative viability", "setting": "[17]; first compound 0.5 µM", "result": 0.153}, {"measurement": "relative viability", "setting": "[18]; first compound 0.005 µM", "result": 0.451}, {"measurement": "relative viability", "setting": "[18]; first compound 0.01581 µM", "result": 0.406}, {"measurement": "relative viability", "setting": "[18]; first compound 0.05 µM", "result": 0.336}, {"measurement": "relative viability", "setting": "[18]; first compound 0.1581 µM", "result": 0.0621}, {"measurement": "relative viability", "setting": "[18]; first compound 0.5 µM", "result": 0.0458}, {"measurement": "relative viability", "setting": "[19]; first compound 0.005 µM", "result": 0.476}, {"measurement": "relative viability", "setting": "[19]; first compound 0.01581 µM", "result": 0.407}, {"measurement": "relative viability", "setting": "[19]; first compound 0.05 µM", "result": 0.427}, {"measurement": "relative viability", "setting": "[19]; first compound 0.1581 µM", "result": 0.311}, {"measurement": "relative viability", "setting": "[19]; first compound 0.5 µM", "result": 0.274}, {"measurement": "relative viability", "setting": "[20]; first compound 0.005 µM", "result": 0.526}, {"measurement": "relative viability", "setting": "[20]; first compound 0.01581 µM", "result": 0.565}, {"measurement": "relative viability", "setting": "[20]; first compound 0.05 µM", "result": 0.524}, {"measurement": "relative viability", "setting": "[20]; first compound 0.1581 µM", "result": 0.462}, {"measurement": "relative viability", "setting": "[20]; first compound 0.5 µM", "result": 0.372}]}
